Assays:
[1] = test system: NCI 60 cancer cell line panel; assay: NCI 60 panel growth inhibition (SRB), whole panel; assay type: cell-based, human; details: mean over NCI 60 panel, 10 μM
Method in brief: (§1)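 Cells were plated at 5000–40,000 cells/well by doubling time; after 24 h, time-zero plates were TCA-fixed. Compounds from DMSO stocks were tested at five concentrations (10-fold or ½ log dilutions) plus control. Adherent cells were TCA-fixed; percentage growth was calculated from Tz, control and test absorbances.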

MALME-3M = assay: NCI 60 panel growth inhibition (SRB), melanoma; assay type: cell-based, human; details: 10 μM
Method in brief: as §1

MDA-MB-435 = assay: NCI 60 panel growth inhibition (SRB), melanoma; assay type: cell-based, human; details: MDA-MB-435, 10 μM
Method in brief: as §1

KM12 = assay: NCI 60 panel growth inhibition (SRB), colon cancer; assay type: cell-based, human; details: KM12, 10 μM
Method in brief: as §1

COLO 205 = assay: NCI 60 panel growth inhibition (SRB), colon cancer; assay type: cell-based, human; details: COLO 205, 10 μM
Method in brief: as §1

HCT-15 = assay: NCI 60 panel growth inhibition (SRB), colon cancer; assay type: cell-based, human; details: HCT-15, 10 μM
Method in brief: as §1

SW-620 = assay: NCI 60 panel growth inhibition (SRB), colon cancer; assay type: cell-based, human; details: SW-620, 10 μM
Method in brief: as §1

HCC-2998 = assay: NCI 60 panel growth inhibition (SRB), colon cancer; assay type: cell-based, human; details: HCC-2998, 10 μM
Method in brief: as §1

HCT-116 = assay: NCI 60 panel growth inhibition (SRB), colon cancer; assay type: cell-based, human; details: HCT-116, 10 μM
Method in brief: as §1

SNB-19 = assay: NCI 60 panel growth inhibition (SRB), CNS cancer; assay type: cell-based, human; details: SNB-19, 10 μM
Method in brief: as §1

SF-295 = assay: NCI 60 panel growth inhibition (SRB), CNS cancer; assay type: cell-based, human; details: SF-295, 10 μM
Method in brief: as §1

SNB-75 = assay: NCI 60 panel growth inhibition (SRB), CNS cancer; assay type: cell-based, human; details: SNB-75, 10 μM
Method in brief: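 Selected compounds progressed from a single-dose mean-graph screen to five-concentration testing. Percentage growth, with negative values indicating cell kill below Tz, was computed per level, giving TGI among three parameters.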

SF-539 = assay: NCI 60 panel growth inhibition (SRB), CNS cancer; assay type: cell-based, human; details: SF-539, 10 μM
Method in brief: as §1

SF-268 = assay: NCI 60 panel growth inhibition (SRB), CNS cancer; assay type: cell-based, human; details: SF-268, 10 μM
Method in brief: as §1

U251 = assay: NCI 60 panel growth inhibition (SRB), CNS cancer; assay type: cell-based, human; details: U251, 10 μM
Method in brief: as §1

NCI-H522 = assay: NCI 60 panel growth inhibition (SRB), non-small cell lung cancer; assay type: cell-based, human; details: NCI-H522, 10 μM
Method in brief: as §1

EKVX = assay: as above; assay type: cell-based, human; details: 10 μM
Method in brief: as §1

HOP-62 = assay: as above; assay type: cell-based, human; details: HOP-62, 10 μM
Method in brief: as §1

HOP-92 = assay: as above; assay type: cell-based, human; details: HOP-92, 10 μM
Method in brief: as §1

NCI-H226 = assay: as above; assay type: cell-based, human; details: NCI-H226, 10 μM
Method in brief: as §1

NCI-H23 = assay: as above; assay type: cell-based, human; details: NCI-H23, 10 μM
Method in brief: as §1

NCI-H322M = assay: as above; assay type: cell-based, human; details: 10 μM
Method in brief: as §1

NCI-H460 = assay: as above; assay type: cell-based, human; details: NCI-H460, 10 μM
Method in brief: as §1

A549/ATCC = assay: as above; assay type: cell-based, human; details: 10 μM
Method in brief: as §1

CDK2 = target: T1, CDK2 (Homo sapiens, UniProt P24941); assay: CDK2 kinase assay (BPS kit, Kinase-Glo Max); assay type: biochemical; details: mean of two independent experiments ± SD
T1 construct: purchased BPS Biosciences 79599

SK-MEL-2 = assay: NCI 60 panel growth inhibition (SRB), melanoma; assay type: cell-based, human; details: SK-MEL-2, 10 μM
Method in brief: as §1

HT29 = assay: NCI 60 panel growth inhibition (SRB), colon cancer; assay type: cell-based, human; details: HT29, 10 μM
Method in brief: as §1

Compound | melting point [°C] | GI% (MALME-3M) [%] | GI% (MDA-MB-435) | GI% (KM12) | GI% (COLO 205) | GI% (HCT-15) [%] | GI% (SW-620) | GI% (HCC-2998) | GI% (HCT-116) | GI% (SNB-19) | GI% (SF-295) | GI% (SNB-75) | GI% (SF-539) [%] | GI% (SF-268) [%] | GI% (U251) | GI% (NCI-H522) | GI% (EKVX) | GI% (HOP-62) | GI% (NCI-H226) | GI% (NCI-H23) [%] | further results
Cc1ccc2c(c1)C(=NNC(=O)COc1ccccc1-c1nc3ccccc3s1)C(=O)N2 [Compound 9b, 2-(2-(Benzo[d]thiazol-2-yl)phenoxy)-N′-(5-methyl-2-oxoindolin-3-ylidene)acetohydrazide] | 251 to 253 | 57.82 | 17.86% | 18.69% | – (GI% < 5%) | 31.29 | – (GI% < 5%) | 19.53% | 53.56% | 74.25% | 44.34% | 54.28% | 76.88 | 43.82 | 56.51% | 37.21% | 24.46% | 51.18% | 105.34% | 85.13 | Mean GI% [1]: 44.28%; GI% (HOP-92): 35.86%; GI% (NCI-H322M): 19.44%; GI% (NCI-H460): 34.24%; GI% (A549/ATCC): 28.01%; IC50 (CDK2): 0.7 ± 0.013 µM
COc1cccc(-c2nc3ccccc3s2)c1OCC(=O)NN=C1C(=O)Nc2ccc(Br)cc21 [Compound 9l, 2-(2-(Benzo[d]thiazol-2-yl)-6-methoxyphenoxy)-N′-(5-bromo-2-oxoindolin-3-ylidene)acetohydrazide] | 266 to 268 | 6.30 | 5.27% | 12.55% | – (GI% < 5%) | 21.00 | – (GI% < 5%) | – (GI% < 5%) | 7.62% | – (GI% < 5%) | 33.14% | 10.42% | 9.75 | 8.60 | – (GI% < 5%) | 25.73% | 66.66% | 13.44% | 12.06% | 17.03 | Mean GI% [1]: 12.52%; GI% (SK-MEL-2): 9.60%; GI% (HT29): 9.08%; GI% (NCI-H322M): – (GI% < 5%); GI% (NCI-H460): 5.26%; GI% (A549/ATCC): 17.13%
O=C(COc1ccccc1-c1nc2ccccc2s1)NN=C1C(=O)Nc2ccc(Br)cc21 [Compound 9f, 2-(2-(Benzo[d]thiazol-2-yl)phenoxy)-N′-(5-bromo-2-oxoindolin-3-ylidene)acetohydrazide] | 261 to 263 | 55.98 | 14.63% | 15.34% | – (GI% < 5%) | 17.46 | – (GI% < 5%) | 11.62% | 53.40% | 81.08% | 32.61% | 84.86% | 110.59 | 45.84 | 86.92% | 51.70% | 19.72% | 74.09% | 106.99% | 40.56 | Mean GI% [1]: 43.78%; GI% (HT29): – (GI% < 5%); GI% (HOP-92): 51.76%; GI% (NCI-H322M): 17.70%; GI% (NCI-H460): 18.32%; GI% (A549/ATCC): 29.34%; IC50 (CDK2): 0.2 ± 0.035 µM
COc1ccc(-c2nc3ccccc3s2)cc1OCC(=O)NN=C1C(=O)Nc2ccc(C)cc21 [Compound 9n, 2-(5-(Benzo[d]thiazol-2-yl)-2-methoxyphenoxy)-N′-(5-methyl-2-oxoindolin-3-ylidene)acetohydrazide] | 224 to 226 | 18.46 | – (GI% < 5%) | – (GI% < 5%) | – (GI% < 5%) | 9.62 | 6.33% | – (GI% < 5%) | – (GI% < 5%) | – (GI% < 5%) | – (GI% < 5%) | – (GI% < 5%) | 11.49 | 5.27 | – (GI% < 5%) | – (GI% < 5%) | – (GI% < 5%) | – (GI% < 5%) | – (GI% < 5%) | 12.32 | GI% (SK-MEL-2): – (GI% < 5%); GI% (HT29): – (GI% < 5%); GI% (HOP-92): – (GI% < 5%); GI% (NCI-H322M): 10.32%; GI% (NCI-H460): – (GI% < 5%); GI% (A549/ATCC): – (GI% < 5%)
